This is an account of results in US4141993A, “Compounds of diphenylcyclopentylamine type and methods for their preparation” (priority 1971, dated 1979).

Molecules are shown by their SMILES. Where two headings read alike, the source gives them in different places.

Data set [1] has as its system mice. Briefly: Anticholinergic effect (mydriasis) in mice. Format: in vivo. The protocol:
(§1) Acute toxicity, behavior and anticholinergic effect (mydriasis) in mice
(§2) The compounds were given by intravenous route to 3 mice. […] Seizures, gait, sedation and grip strength were recorded. […] PD200 is the dose which increases the pupil by 200%.

For data set [2] the following is noted: first observable after; cited from earlier work.
In data set [3] the test system is uptake of tritiated 5-HT. The data set is described as follows: Inhibition of the uptake of tritiated 5-HT in vitro (midbrain slices). Format: biochemical, mice. Particulars: for Inhibition (50 %) of uptake in vitro, 5-HT: 5-hydroxytryptamine 10^-7 M. How it is done: (§3) 1. Inhibition of the uptake of tritiated 5-HT in vitro and in vivo
[…] out and sliced and incubated in a mixture consisting of, per 100 mg of brain slices, […] 2 ml of Krebs-Henseleit buffer, pH 7.4. The incubation time was 5 minutes with 5 minutes of preincubation before ^3 H-5-HT was added. The radioactive ^3 H-5-HT taken up in the slices was extracted with ethanol and the amount was determined by liquid scintillation. […] Active uptake is defined as that part of the radioactive uptake which is inhibited by a high concentration of cocaine. All doses were given at least to four animals.

Data set [4] relates to uptake of tritiated noradrenaline. Briefly: Inhibition of the uptake of tritiated noradrenaline in vivo (drug i.p., uptake in cortex slices). Particulars: for ED50: ip, 1 h, read-out: Inhibition (50 %) of uptake in vivo, NA (ED50), i.p., half or one hour before the animals were killed; for selectivity towards noradrenaline: uptake inhibition, compared with imipramine. The protocol: (§4) 2. Inhibition of the uptake of tritiated noradrenaline in vitro and in vivo
(§5) The animals were killed half or one hour after the administration of the drugs in vivo (i.p.). The slices, made from cortex, were preincubated for five minutes and incubated with 0.1 μmole per ml of ^3 H-noradrenaline for further five minutes. The incubation mixture consisted of 0.2 μmole of ^3 H-NA and the brain slices in 2 ml of Krebs-Henseleits buffer, pH 7.4. The radioactive ^3 H-NA taken up in the slices was extracted with ethanol and the amount was determined by liquid scintillation. The dose producing 50 percent decrease of the active uptake (ED50) was determined graphically from dose response curves. At least four animals were used at each dose level.

The test system of data set [5] is uptake of tritiated 5-HT. The data set is described as follows: Inhibition of the uptake of tritiated 5-HT in vivo (drug i.p., uptake in midbrain slices). On the set-up: species or system mice. Particulars: for ED50: Mus musculus, ip, 0.5 h, read-out: Inhibition (50 %) of uptake in vivo, 5-HT (ED50), i.p., half an hour before the animals were killed. The protocol:
as §3
The drugs were administered intraperitoneally half an hour before the animals were killed and the midbrain was taken out and sliced and incubated in a mixture consisting of, per 100 mg of brain slices, 0.2 μmole of ^3 H-5-HT and 1 μmole of glucose in 2 ml of Krebs-Henseleit buffer, pH 7.4. The incubation time was 5 minutes with 5 minutes of preincubation before ^3 H-5-HT was added. The radioactive ^3 H-5-HT taken up in the slices was extracted with ethanol and the amount was determined by liquid scintillation. […] Active uptake is defined as that part of the radioactive uptake which is inhibited by a high concentration of cocaine. All doses were given at least to four animals.

For a further data set, the system named is Dopa response. The data set is described as follows: Dopa response potentiation test. Format: in vivo, mice. Particulars: for L-DOPA potentiation, 10 mg/kg i.p., 1h / L-DOPA potentiation, 10 mg/kg i.p., 4h: score, pargyline pretreated; for L-DOPA potentiation, 10 mg/kg i.p., 1h: drug 1 h before 1-Dopa 100 mg/kg i.p.; for L-DOPA potentiation, 10 mg/kg i.p., 4h: drug 4 h before 1-Dopa 100 mg/kg i.p.

The subject of data set [6] is mice. The data set is described as follows: Motor activity in mice (exploratory activity, locomotion cage). The data set is classed as in vivo. To be noted: Mus musculus, ip, 1 h, read-out: Motor activity ID50. The protocol: The exploratory activity of mice was recorded in a locomotion cage in which the movements were counted each time the animals cross-circuit an electrical current in the bottom plate. The activity was recorded for ten minutes one hour after the administration of the drug. The animals were tested individually. Groups of six mice were used and the mice were only used once. The activity was expressed in percent of the activity of control groups ran simultaneously.

Another data set concerns 5-HTP response. Briefly: 5-HTP response potentiation test. Particulars: for 5-HTP potentiation, 25 mg/kg i.p., 1h: drug 1 h before 5-HTP; for 5-HTP potentiation, 25 mg/kg i.p., 1h / 5-HTP potentiation, 25 mg/kg i.p., 4h: 0 = without effect; for 5-HTP potentiation, 25 mg/kg i.p., 4h: drug 4 h before 5-HTP. The data set is classed as in vivo, mice. How it is done:
1. 5-HTP response potentiation test
Inhibition of the uptake of 5-HT potentiates the effects of administered 5-hydroxytryptophane (5-HTP) probably by increasing the amount of 5-HT at the receptor.
These small movements are quantitatively measured in an activity box, type Animex, which can distinguish between small and gross movements. The activity is measured during 20 minutes and only in the case the animals have a fullblown syndrome.

Data set [7] has as its system uptake of tritiated noradrenaline. The data set is described as follows: Inhibition of the uptake of tritiated noradrenaline in vitro (cortex slices). Particulars: for Inhibition (50 %) of uptake in vitro, NA: dl-noradrenaline 10^-7 M. The data set is classed as biochemical. How it is done: as §4
as §5, with “The method is found in European Journal of Pharmacology 2 (1967), 181- 186. The animals” for “The animals”
Inhibition (50 %) of uptake
^2) Na = dl-noradrenaline 10^-7 M

A further data set deals with rats. Briefly: Drug induced arrhythmia in rats: ECG changes and LD50. Format: in vivo. The text has this: (§6) Drug Induced Arrhythmia in Rats: ECG changes and LD50
(§7) Rats were infused intravenously with test drugs and relevant reference compounds. The doses are increased stepwise. The first dose causing ECG changes of any type was noted, and thereafter the doses were increased up to the lethal dose.

Test in data set [8]: as above
Format: in vivo. Particulars: in vivo, iv; i.v. infusion, rat, stepwise increased doses.
Text: as §6, §7

The nature of a further data set: Acute toxicity in mice. Particulars: mouse, in vivo, iv, within 24 hours. The protocol:
as §1, §2

Data set [9] has as its system uptake of tritiated 5-HT. Briefly: Inhibition of the uptake of tritiated 5-HT in vivo (drug i.p., uptake in midbrain slices). On the set-up: species or system mice. Particulars: for time of maximal uptake inhibition: uptake inhibition increases with time; for duration of inhibition of the uptake mechanism compared with imipramine: uptake of 5-HT and noradrenaline.
[10] abbreviates: i.p., one hour after administration.

Protocol for Dopa response: Mice in groups of 3 are pretreated with Pargyline® 40 mg/kg p.o. about 10-16 hours before the test. […] 1-Dopa gives a characteristic syndrome which is scored as follows:
1. piloerection, slight salivation, slight increased motor activity
2. piloerection, salivation, marked increased motor activity and irritability
3. piloerection, profuse salivation, marked irritability and reactivity, jumping, squeaking, fighting.
The control groups are Amitriptyline (20 mg/kg i.p. 4 hours before 1-Dopa) and saline (1 hour before 1-Dopa). […] The test drugs were all tested at 10 mg/kg i.p.

As for `CN(C)CCCN1c2ccccc2CCc2ccccc21` [Imipramine, imipramine, reference compound], the “Mydriasis PD200” value in the data set with mice [1] (i.v., 10 minutes after injection, dose which increases the pupil by 200%) came out at 13 mg/kg. In addition, the “onset of antidepressive effect” value in data set [2] is on record as 3 weeks. Moreover, the “Inhibition (50 %) of uptake in vitro, 5-HT” value (shortened to “Inhibition (50 %) … 5-HT”) with uptake of tritiated 5-HT [3] was 0.10 µg/mL. Further, the ED50 in [4] was 6 mg/kg; in the data set with uptake of tritiated 5-HT [5] it was 24 mg/kg; in the data set with mice [6], 45 mg/kg. For the same compound, in the data set on Dopa response, the “L-DOPA potentiation, 10 mg/kg i.p., 1h” value stood at 2. In addition, the “L-DOPA potentiation, 10 mg/kg i.p., 4h” value in the data set with Dopa response stood at 1. Besides, in the data set with 5-HTP response (control group), the “potentiation of dl-5-HTP by reference, in words” value is “constantly potentiated dl-5-HTP”. Besides, the “5-HTP potentiation, 25 mg/kg i.p., 1h” value with 5-HTP response is reported as 25. For the same compound, in the data set on 5-HTP response, the “5-HTP potentiation, 25 mg/kg i.p., 4h” value amounted to 0. In data set [7], the “Inhibition (50 %) of uptake in vitro, NA” value came to 0.06 µg/mL.
As a reminder, the LD50 is the dose at which mortality reaches 50%. Low values mean a more toxic substance, high ones a less toxic substance. Take `NC1CCC(c2ccccc2)(c2ccccc2)C1` (stereo not shown) [PUB 105, 1-Amino-3,3-diphenylcyclopentane]: the “Mydriasis PD200” value with mice [1] (mouse, in vivo, iv, 10 min) came out at 19 mg/kg. Further, the “ECG changes i.v. rat (first dose causing ECG changes of any type)” value with rats (i.v. infusion) is 14. The “dose causing ECG changes relative to that of imipramine” value in the data set on rats (i.v., rat) stood at 3 times. The compound further registered an LD50 in [8] of 58 mg/kg. In the data set with uptake of tritiated 5-HT [3], the “Inhibition (50 %) … 5-HT” value is 0.18 µg/mL and the “inhibition of uptake of 5-hydroxytryptamine in vitro, in words” value is recorded as “potent inhibitors”. In data set [4], the “inhibition of uptake of noradrenaline in vivo, in words” value is “strong inhibition”; the ED50 turned out to be 20 mg/kg; the selectivity towards noradrenaline result is recorded as “substantially nonselective ability towards noradrenaline”. Moreover, in the data set with uptake of tritiated 5-HT [5], the ED50 was 10 to 20 mg/kg and the “inhibition of uptake of 5-hydroxytryptamine in vivo, in words” value is reported as “strong inhibition”. In addition, in the data set on Dopa response, the “L-DOPA potentiation, 10 mg/kg i.p., 1h” value amounted to 3 and the “L-DOPA potentiation, 10 mg/kg i.p., 4h” value amounted to 3. Further, the LD50 at 24 h in the data set “Acute toxicity in mice” stood at 22 mg/kg. Further, in the data set with uptake of tritiated 5-HT [9], the “uptake inhibition still pronounced after” value came out at 16 h, the “time of maximal uptake inhibition” value is reported as “four” and the “duration of inhibition of the uptake mechanism compared with imipramine” value is recorded as “much longer time than does the reference substance imipramine”. The ED50 with mice [6] (setting [10]) is over 50 mg/kg. For the same compound, in the data set with 5-HTP response, the “5-HTP potentiation, 25 mg/kg i.p., 1h” value came out at 12.5 and the “5-HTP potentiation, 25 mg/kg i.p., 4h” value is recorded as 25. In data set [7], the “Inhibition (50 %) of uptake in vitro, NA” value was 0.15 µg/mL and the “inhibition of uptake of noradrenaline in vitro, in words” value was “potent inhibitors”.
As to `NC1CCC(c2ccccc2)(c2ccc(Cl)cc2)C1` (stereo not shown) [PUN 122, 1-amino-3-(4-chlorophenyl)-3-phenylcyclopentane], the “Mydriasis PD200” value with mice [1] (mouse, in vivo, iv, 10 min) is over 12.5 mg/kg. Further, in the data set with uptake of tritiated 5-HT [3], the “Inhibition (50 %) … 5-HT” value turned out to be 0.7 µg/mL and the “inhibition of uptake of 5-hydroxytryptamine in vitro, in words” value was “potent inhibitors”. In [4], the “inhibition of uptake of noradrenaline in vivo, in words” value is reported as “strong inhibition”; the ED50 came to 30 mg/kg; the selectivity towards noradrenaline entry is “substantially nonselective ability towards noradrenaline”. In the data set with uptake of tritiated 5-HT [5], the ED50 is 20 mg/kg and the “inhibition of uptake of 5-hydroxytryptamine in vivo, in words” value is reported as “strong inhibition”. In the data set on Dopa response, the “L-DOPA potentiation, 10 mg/kg i.p., 1h” value is 3 and the “L-DOPA potentiation, 10 mg/kg i.p., 4h” value turned out to be 3. Further, the LD50 at 24 h in the data set “Acute toxicity in mice” was determined as 15 mg/kg. In the data set on uptake of tritiated 5-HT [9], the “uptake inhibition still pronounced after” value amounted to 16 h, the “time of maximal uptake inhibition” value is “four” and the “duration of inhibition of the uptake mechanism compared with imipramine” value was “much longer time than does the reference substance imipramine”. Besides, in the data set on mice [6] (setting [10]), the ED50 is over 50 mg/kg. Also, the “5-HTP potentiation, 25 mg/kg i.p., 1h” value with 5-HTP response was found to be 25. In data set [7], the “Inhibition (50 %) of uptake in vitro, NA” value worked out at 0.3 µg/mL and the “inhibition of uptake of noradrenaline in vitro, in words” value is “potent inhibitors”.
With `NC1CCC(c2ccc(Cl)cc2)(c2ccc(Cl)cc2)C1` (stereo not shown) [PUT 108, 1-amino-3,3-di(4-chlorophenyl)cyclopentane], the “Mydriasis PD200” value with mice [1] (mouse, in vivo, iv, 10 min) is recorded as over 23 mg/kg. Further, the “Inhibition (50 %) … 5-HT” value in the data set with uptake of tritiated 5-HT [3] came to 1 µg/mL. Besides, the ED50 in data set [4] was over 40 mg/kg; in the data set with uptake of tritiated 5-HT [5], over 40 mg/kg; with mice [6] (setting [10]), over 50 mg/kg. In addition, the “L-DOPA potentiation, entry given as a bound (no score)” value in the data set with Dopa response (printed in the 1h column, head 10 mg/kg i.p.) is reported as over 10. In addition, the LD50 at 24 h in the data set “Acute toxicity in mice” worked out at 23 mg/kg. The “5-HTP potentiation, 25 mg/kg i.p., 1h” value in the data set on 5-HTP response is over 25. Moreover, the “Inhibition (50 %) of uptake in vitro, NA” value in data set [7] turned out to be 2.5 µg/mL.
